Measurements from patent US20220175766A1, “COMPOSITIONS AND METHODS OF TREATMENT” (GB004, Inc., priority 2019, published 2022).
≈ marks a conversion by molar mass, not a printed value. Where two headings read alike, the source gives them in different places.

How the values were obtained:
EPO or VEGF = experiment: Phase 1a multiple dose tablet study (Example 26): EPO and VEGF change from baseline to Day 7; set-up: species or system human; conditions: in vivo
[1] = tested on: hypoxia inducible factor (HIF)-inducible gene expression; experiment: Phase 1a multiple ascending dose study: HIF-inducible gene expression in colonic mucosal biopsy samples; format: in vivo, human
Experimental: Colonic mucosal biopsy samples were also assessed for hypoxia inducible factor (HIF)-inducible gene expression. For Tier 1 association tests, two significant gene were detected (HMOX1, CA9).

EPO and VEGF = experiment: Phase 1a multiple ascending dose study: circulating EPO and VEGF levels in serum; format: in vivo, human; conditions: serum samples
[2] = Biopharmaceutical Classification System (BCS) classification; format: physicochemical; conditions: low solubility/dissolution rate and high permeability
Description: Compound 1 can be classified as a BCS Class 2 compound (according to the Biopharmaceutical Classification System as defined by the “Guidance for Industry: Waiver of In Vivo Bioavailability and Bioequivalence studies for immediate release solid oral dosage forms based on a Biopharmaceutics Classification System”) which indicates it has a low solubility/dissolution rate and high permeability.

[3] = Phase 1a multiple ascending dose study: Compound 1 in fecal samples; format: in vivo, human; conditions: for dose excreted: human, feces, oral, read-out: Mean recovery of Compound 1 in feces, range across cohorts
Experimental: Fecal samples were collected, when possible, over 24 hours (0-24 hours) post administration on Day 1 and Day 7; the absolute amount of Compound 1 measured (mg) is shown Table 48.

HIF-1α = experiment: Phase 1a multiple ascending dose study: proportion of HIF-1α positive cells in colonic biopsies (immunohistochemistry, manual assessment); format: in vivo, human; conditions: for Proportion of HIF-1α Positive Cells, CFB (change from baseline), Mean / Proportion of HIF-1α Positive Cells, CFB (change from baseline), Median: baseline to Day 8
Experimental: Manual assessment of the proportion of HIF-1α positive cells was conducted in 10 regions of interest, selected in whole tissue sections. (Note, the study was amended to add this immunohistochemistry analysis; thus data is only available for cohorts 4 and 5 (120 mg and 60 mg), cohorts 1-3 lacked this type of biopsy).
Table 50 presents the proportions of HIF-1α positive cells evaluated at baseline and Day 8, and the change from baseline to Day 8 of the proportion of HIF-1α positive cells. The mean proportion of HIF-1α positive cells ranged from 1% to 80% across all experimental groups.

[4] = Phase 1a single ascending dose study (oral solution): plasma pharmacokinetics; format: in vivo; conditions: male, human; for AUC(0-t): read-out: AUClast, mean (SD); for Cmax: read-out: Cmax, mean (SD)
Experimental: Compound 1 was administered as the HCl-salt (prepared analogously to Example 2.1).
Placebo dosing solutions were identical to active, except without Compound 1. […] Since HPβCD concentration remained constant, subjects in Cohort 5 received twice the amount of HPβCD relative to subjects in Cohorts 1 to 4. Dosing, including consumption of rinse water, was completed within 3 minutes, administered in the morning after an overnight fast, and maintained for up to 4 hours after dosing.
The secondary objective was to characterize the single-dose pharmacokinetic (PK) parameters of Compound 1 after ascending doses.
Blood samples were collected at baseline, day 1 (0.5, 1, 2, 3, 4, 6, 8, 12, 16, 24 hours post dose), day 2 (30, 36 and 48 hours post dose) and day 8 follow-up visit. Analysis of plasma samples was performed using a validated Liquid Chromatography—Mass Spectrometry and Liquid Chromatography—Tandem Mass Spectrometry (LC-MS/MS) method.

[5] = Phase 1a single ascending dose study (oral solution): safety and tolerability; format: in vivo, human; conditions: all doses evaluated (20-240 mg) in 50 mL or 100 mL vehicle
Description: The primary objective of the study was to assess the safety and tolerability of ascending dose levels of Compound 1 after single oral dose administration. The safety endpoints included AE incidence, clinically significant changes in vital signs, ECG parameters, clinical laboratory tests and physical examination.
All subjects underwent a complete physical examination and their medical history and demographic information collected. The body systems evaluated included general appearance, skin, lymphatic, head and neck, EENT (eyes, ears, nose, and throat), chest and lungs, cardiovascular, abdomen, extremities, musculoskeletal and neuromuscular. Vital signs were measured. Blood pressure, pulse, respiratory rate and oral temperature; were taken. Blood and urine samples were collected at screening, pre-baseline, baseline, during the treatment period, and Day 8 follow-up visit; the following clinical laboratory evaluations were conducted. […]

[6] = Compound 1 pH-solubility at 22° C.; format: physicochemical; conditions: for solubility: aqueous buffer, thermodynamic from solid
Description: The solubility of Compound 1 at various pH's was investigated.

[7] = Pooled (60 mg and 120 mg), Baseline
[8] = Pooled (60 mg and 120 mg), Day 8
[9] = 20 mg, Cohort 1, 20 mg single oral dose (0.4 mg/mL, 50 mL)
[10] = 60 mg, Cohort 2, 60 mg single oral dose (1.2 mg/mL, 50 mL)
[11] = 120 mg, Cohort 3, 120 mg single oral dose (2.4 mg/mL, 50 mL)
[12] = 240 mg, Cohort 4, 240 mg single oral dose (4.8 mg/mL, 50 mL)
[13] = 240 mg, Cohort 5, 240 mg single oral dose (2.4 mg/mL, 100 mL)

With `CC(C)(C)OC(=O)N1CCN(Cc2ccn(Cc3ccc(Cl)cc3)c(=O)c2O)CC1` [Compound 1, tert-butyl 4-((1-(4-chlorobenzyl)-3-hydroxy-2-oxo-1,2-dihydropyridin-4-yl)methyl)piperazine-1-carboxylate] the “Effects on EPO or VEGF from baseline to Day 7 compared to placebo” value (EPO or VEGF) was “no consistent or dose-related effects”, the Significant genes detected ([1]; Tier 1 association tests) was “HMOX1, CA9” and the Significant genes detected ([1]; Tier 2 analysis) was “NDRG1, LCN2, BNIP3, TFF3, AKR1C3, BIRC3, TMEM45A and HILPDA”. The “Effects on circulating EPO and VEGF levels” value (EPO and VEGF) was “no Compound 1-related effects”, the BCS classification [2] was “BCS Class 2” and the “Mean observed amount of Compound 1 in fecal samples” value (“Mean observed amount” below) ([3]; Cohort 1, 60 mg once daily, DAY 7, 0-24 hours) was 22.0 mg. The “Mean observed amount” value ([3]; Cohort 1, 60 mg, DAY 1, 0-24 hours) was 11.8 mg, the “Mean observed amount” value ([3]; Cohort 2, 120 mg once daily, DAY 7, 0-24 hours) was 37.5 mg and the “Mean observed amount” value ([3]; Cohort 2, 120 mg, DAY 1, 0-24 hours) was 5.9 mg. The “Mean observed amount” value ([3]; Cohort 3, 240 mg once daily, DAY 7, 0-24 hours) was 125.3 mg, the “Mean observed amount” value ([3]; Cohort 3, 240 mg, DAY 1, 0-24 hours) was 46.5 mg and the “Mean observed amount” value ([3]; Cohort 4, 120 mg once daily, DAY 7, 0-24 hours) was 33.9 mg. For the same compound, the “Mean observed amount” value ([3]; Cohort 4, 120 mg, DAY 1, 0-24 hours) was 14.4 mg, the “Mean observed amount” value ([3]; Cohort 5, 60 mg once daily, DAY 7, 0-24 hours) was 11.6 mg and the “Mean observed amount” value ([3]; Cohort 5, 60 mg, DAY 1, 0-24 hours) was 13.0 mg. The “Mean fecal concentrations of Compound 1, range across cohorts” value ([3]; Day 1) was 40 to 225 µg/g, the “Mean fecal concentrations of Compound 1, range across cohorts” value ([3]; Day 7) was 95 to 506 µg/g and the dose excreted ([3]; Day 1) was 5 to 22%. For the same compound, the dose excreted ([3]; Day 7) was 19 to 52%, the “Proportion of HIF-1α Positive Cells, Mean” value (HIF-1α; 60 mg, Baseline) was 6.3% and the “Proportion of HIF-1α Positive Cells, Median” value (HIF-1α; 60 mg, Baseline) was 5.8%. The “Proportion of HIF-1α Positive Cells, Mean” value (HIF-1α; 60 mg, Day 8) was 44.5%, the “Proportion of HIF-1α Positive Cells, Median” value (HIF-1α; 60 mg, Day 8) was 46.5% and the “Proportion of HIF-1α Positive Cells, CFB (change from baseline), Mean” value (from here on “Proportion … (change from baseline), Mean”) (HIF-1α; 60 mg) was 38.3%. For the same compound, the “Proportion of HIF-1α Positive Cells, CFB (change from baseline), Median” value (from here on “Proportion … (change from baseline), Median”) (HIF-1α; 60 mg) was 38.0%, the “Proportion of HIF-1α Positive Cells, Mean” value (HIF-1α; 120 mg, Baseline) was 12.0% and the “Proportion of HIF-1α Positive Cells, Median” value (HIF-1α; 120 mg, Baseline) was 6.3%. The “Proportion of HIF-1α Positive Cells, Mean” value (HIF-1α; 120 mg, Day 8) was 44.1%, the “Proportion of HIF-1α Positive Cells, Median” value (HIF-1α; 120 mg, Day 8) was 45.3% and the “Proportion … (change from baseline), Mean” value (HIF-1α; 120 mg) was 32.1%. For the same compound, the “Proportion … (change from baseline), Median” value (HIF-1α; 120 mg) was 28.5%, the “Proportion of HIF-1α Positive Cells, Mean” value (HIF-1α; [7]) was 9.1% and the “Proportion of HIF-1α Positive Cells, Median” value (HIF-1α; [7]) was 5.8%. For the same compound, the “Proportion of HIF-1α Positive Cells, Mean” value (HIF-1α; [8]) was 44.3%, the “Proportion of HIF-1α Positive Cells, Median” value (HIF-1α; [8]) was 45.3% and the “Proportion … (change from baseline), Mean” value (HIF-1α; Pooled (60 mg and 120 mg)) was 35.2%. For the same compound, the “Proportion … (change from baseline), Median” value (HIF-1α; Pooled (60 mg and 120 mg)) was 29.0%, the “Increase from baseline to Day 8 in proportion of HIF-1α positive cells [mean±SD]” value (HIF-1α; combined group (Pooled; 120 mg and 60 mg cohorts)) was 35.2+28.8 and the Tmax [4, 9] was 30 min. The AUC(0-t) [4, 9] was 10.7 ng·h/mL, the Cmax [4, 9] was 2.06 ng/mL and the Tmax [4, 10] was 30 min. It also gave an AUC(0-t) [4, 10] of 14.2 ng·h/mL, a Cmax [4, 10] of 7.71 ng/mL and a Tmax [4, 11] of 30 min. The AUC(0-t) [4, 11] was 32.3 ng·h/mL, the Cmax [4, 11] was 12.4 ng/mL and the Tmax [4, 12] was 30 min. It also gave an AUC(0-t) [4, 12] of 41.3 ng·h/mL, a Cmax [4, 12] of 25 ng/mL and a Tmax [4, 13] of 30 min. For the same compound, the AUC(0-t) [4, 13] was 79.5 ng·h/mL, the Cmax [4, 13] was 30.7 ng/mL and the Tmax ([4]; single oral solution dose, healthy male subjects) was < 60 min. For the same compound, the Tmax ([4]; single oral solution formulation dose) was 30 min, the Safety and tolerability [5] was “safe and well tolerated” and the solubility ([6]; TRIS buffer, pH 8 (TRIS 25 mM, l = 0.1), pH 8.0, 22° C.) was 0.69 µg/mL (≈ 1.59 µM). For the same compound, the “Solubility (in words)” value ([6]; above pH 4) was “practically insoluble”, the solubility ([6]; 0.1M NaOH, pH 12.6, 22° C.) was 890 µg/mL (≈ 2050 µM) and the “Solubility (in words)” value ([6]; at pH 1) was “soluble”. The “Solubility (in words)” value ([6]; at pH 6.8) was “totally insoluble”, the solubility ([6]; citrate buffer, pH 3 (Citrate 25 mM, l = 0.1), pH 2.9, 22° C.) was 570 µg/mL (≈ 1310 µM) and the solubility ([6]; citrate buffer, pH 4 (Citrate 25 mM, l = 0.1), pH 3.9, 22° C.) was 94 µg/mL (≈ 217 µM). It also gave a solubility ([6]; citrate buffer, pH 5 (Citrate 25 mM, l = 0.1), pH 5.0, 22° C.) of 9.8 µg/mL (≈ 22.6 µM), a solubility ([6]; glycine buffer, pH 10 (Glycine 25 mM, l = 0.1), pH 9.9, 22° C.) of 9.9 µg/mL (≈ 22.8 µM) and a solubility ([6]; phosphate buffer, pH 6.5 (Phosphate 25 mM, l = 0.1), pH 6.5, 22° C.) of 1 µg/mL (≈ 2.3 µM).
